According to US20230201174A1, “COMBINATION OF FINERENONE AND A SGLT2 INHIBITOR FOR THE TREATMENT AND/OR PREVENTION OF CARDIOVASCULAR AND/OR RENAL DISEASES” (BAYER AKTIENGESELLSCHAFT, priority 2020, published 2023):

How the values were obtained:
[1] = system: Wistar rats with activated renin-angiotensin-aldosterone system; test: In vivo assay for detecting natriuretic activity in conscious rats with activated RAAS; design: species or system rat; settings: for Urinary Glucose concentration / Urinary K+ concentration / Urinary Na+ concentration / Urinary Volume/ body weight: 24 h urine, mean ± SEM
Description: Wistar rats (ca. 250-500 g body weight) were kept with free access to feed (Altromin) and drinking water. […] This sodium-reduced feed causes an activation of the RAAS in the animals during the 3 days run-in phase and therefore mimics a neuroendocrine activation which is characteristic for cardiorenal diseases. […] At the start of the test, the substance to be tested was administered by means of gavage in a volume of 2-3 ml/kg of body weight of a suitable solvent PEG400). Control animals received only solvent (‘S’ or solvent in table 2 below). Controls and substance tests were carried out in parallel on the same day. Control groups and substance-dose groups each consisted of 6 to 10 animals. During the test, the urine excreted by the animals was continuously collected in a receiver on the base of the cage.
In this comparison, eight different administrations were performed (cf. groups A to H):
Group A received the solvent (PEG400) only. This group serves as control group.
Groups B, C and D received three increasing dosages of empagliflozin (SGLT2 inhibitor) only. It serves to detect the effects of the monotherapy with SGLT2 inhibitor.
Group E received a finerenone only. It serves to detect the effect of the monotherapy with finerenone.
Groups F, G and H received finerenone and the three doses of SGLT2 inhibitor in combination, respectively. It serves to detect the effect of the combined therapy with finerenone and empagliflozin (SGLT2 inhibitor) (combination according to the invention).
(§1) After the treatment, the urinary volume, urinary glucose, urinary sodium and potassium concentrations were measured.

[2] = system: Zucker diabetic fatty (ZDF) rats; test: In vivo assay for detecting natriuretic activity in chronically treated Zucker diabetic fatty rats; design: species or system rat; settings: for Urinary Glucose concentration / Urinary K+ concentration / Urinary Na+ concentration / Urinary Volume/ body weight: Table 3, 24 h urine, mean ± SEM; for Urinary Glucose concentration / Urinary K+ concentration / Urinary Na+ concentration / Urinary Volume/ body weight / urinary sodium excretion higher in comparison to solvent control group A: ZDF rats treated 9 weeks; for influence on urinary glucose vs solvent, in words / influence on urinary potassium vs solvent, in words / influence on urinary sodium vs solvent, in words / influence on urinary volume vs solvent, in words: ZDF rats, chronic monotherapy 3 and 10 mg/kg/day, 9 weeks
Text: The Zucker diabetic fatty (ZDF) rat has a missense mutation in the gene coding the leptin receptor (fa/fa) and spontaneously develops insulin resistance, type 2 diabetes mellitus (T2DM), hyperlipidemia, moderate hypertension, and obesity, as well as progressive renal injury. Male homozygous animals develop diabetes mellitus from week 7 to 19 which is reflected in marked hyperglycemia. In addition to diabetic cardiac lesions (e.g. hypertrophy), renal pathology develops with proteinuria, mesangial expansion, macrophage infiltration, and interstitial fibrosis. Heterozygous animals are useful non-diabetic control animals since they develop neither obesity nor insulin resistance.
Male 6-7 weeks old obese (fa/fa) Zucker rats (Charles River) were placed on a high energy diet (Purina Rodent LabDiet 5008, PMI Nutrition. Richmond. Ind.) and were randomized to treatment groups or solvent group when the animals were hyperglycemic. Rats (n=14-16/group) received either solvent [ethanol/Solutol/H2O (10/40/50)] or test compounds in solvent once daily applied to (fa/fa) animals for 4 to 12 weeks.
During the experiment, the systolic blood pressure (determined by tail cuff), urine parameters (e.g. protein, glucose, electrolytes, creatinine, urea and uric acid) and blood plasma parameters (e.g. electrolytes, glucose, creatinine, urea and uric acid) were determined at regular intervals.
Histopathology is performed with cardiac and renal tissue from animals of treatment groups and placebo groups.
In this comparison, six different administrations were performed:
Group A received the solvent [ethanol/Solutol/H2O (10/40/50)] only. This group serves as control group.
Groups B and C received two increasing dosages of empagliflozin (SGLT2 inhibitor) only. It serves to detect the effects of the monotherapy with empagliflozin (SGLT2 inhibitor).
Groups D and E received increasing dosages of finerenone only. It serves to detect the effect of the monotherapy with finerenone.
Group F received a combination of the low dosages of empagliflozin (SGLT2 inhibitor) and finerenone, respectively. It serves to detect the effect of the combined therapy with finerenone and empagliflozin (SGLT2 inhibitor) (combination according to the invention).
as §1

[3] = system: hypertensive and proteinuric L-NAME treated renin-transgenic (mRen2)27 rats; test: Non-diabetic cardiorenal rat model: L-NAME treated renin-transgenic (mRen2)27 rats; settings: up to 7 weeks
Description: Cardiorenal morbidity and mortality was studied in hypertensive and proteinuric L-NAME (20 mg/L) treated renin-transgenic (mRen2)27 rats. […] Key outcome parameters included mortality, blood pressure, proteinuria, kidney histology and gene expression.
Female TGR(mRen2)27 renin rats aged 10 to 20 weeks are randomized to different pharmacological treatment groups and a placebo group. In addition, the nitrogen monoxide synthase inhibitor L-NAME is administered via the drinking water in a concentration of 20 to 100 mg/l. During the entire experiment, drinking water and feed are available ad libitum to the animals. The substances are administered via the feed or daily by gavage for 4-10 weeks. Animals treated in the same way but receiving either only the solvent or the feed without test substance serve as placebo group. During the experiment, the systolic blood pressure is determined at regular intervals using a tail cuff, and proteinuria (expressed as ratio of urinary protein concentration per urinary creatinine concentration) and urine electrolyte composition are determined by collecting the urine in metabolic cages, and mortality is registered on a daily base.
The urine volume per collection time was determined separately for each animal, and the concentration of urinary glucose and electrolyte ions excreted in the urine was measured by standard methods by a clinical-chemical analyzer system (ADVIA 2400, Siemens). The urine was typically collected for 24 hours in metabolic cages.

[4] = system: healthy volunteers; settings: dose-dependently induced during the first 24 h; cited from earlier work
[5] = Table 2, monotherapy 1 mg/kg oral
[6] = Table 2 study, monotherapy: empagliflozin 1, 3, 10 mg/kg, finerenone 1 mg/kg
[7] = Table 4, monotherapy 1 mg/kg oral
[8] = Table 4 study, monotherapy: canagliflozin 1 and 3 mg/kg, finerenone 1 mg/kg
[9] = Table 5, monotherapy 1 mg/kg oral
[10] = Table 5 study, monotherapy: dapagliflozin 0.03 and 0.3 mg/kg, finerenone 1 mg/kg
[11] = Table 5 study, monotherapy: dapagliflozin all doses (0.03, 0.3, 3 mg/kg), finerenone 1 mg/kg
[12] = Table 2, monotherapy 3 mg/kg oral
[13] = Table 2, monotherapy 10 mg/kg oral
[14] = Table 5, monotherapy 0.03 mg/kg oral
[15] = Table 5, monotherapy 0.3 mg/kg oral
[16] = Table 5, monotherapy 3 mg/kg oral
[17] = Table 5 study, monotherapy 3 mg/kg

CCOc1ncc(C)c2c1[C@H](c1ccc(C#N)cc1OC)C(C(N)=O)=C(C)N2 [finerenone, (S)-4-(4-cyano-2-methoxyphenyl)-5-ethoxy-2,8-dimethyl-1,4-dihydro-1,6-naphthyridin-3-carboxamide]
Urinary Glucose concentration [1, 5]: b.d.l. | Urinary K+ concentration [1, 5]: 1.46 ± 0.12 mmol | Urinary Na+ concentration [1, 5]: 0.43 ± 0.03 mmol | Urinary Volume/ body weight [1, 5]: 0.0219 ± 0.00186 L/kg | influence on urinary glucose, in words [1, 6]: no influence | influence on urinary potassium, in words [1, 6]: no influence | influence on urinary sodium, in words [1, 6]: increase | influence on urinary volume, in words [1, 6]: no influence | Urinary Glucose concentration [1, 7]: b.d.l. | Urinary K+ concentration [1, 7]: 1.76 ± 0.11 mmol | Urinary Na+ concentration [1, 7]: 0.27 ± 0.06 mmol | Urinary Volume/ body weight [1, 7]: 0.02932 ± 0.00294 L/kg | influence on urinary potassium, in words [1, 8]: no influence | influence on urinary sodium, in words [1, 8]: weak increase | influence on urinary volume, in words [1, 8]: no influence | influence on urinary glucose, in words ([1]; Table 4 study, monotherapy: canagliflozin all doses (1, 3, 10 mg/kg), finerenone 1 mg/kg): no influence | Urinary Glucose concentration [1, 9]: b.d.l. | Urinary K+ concentration [1, 9]: 1.84 ± 0.10 mmol | Urinary Na+ concentration [1, 9]: 0.33 ± 0.43 mmol | Urinary Volume/ body weight [1, 9]: 0.02344 ± 0.00162 L/kg | influence on urinary potassium, in words [1, 10]: no influence | influence on urinary sodium, in words [1, 10]: increase | influence on urinary volume, in words [1, 10]: no influence | influence on urinary glucose, in words [1, 11]: no influence | Urinary Glucose concentration ([2]; monotherapy 3 mg/kg): 291.98 ± 19.11 mmol | Urinary K+ concentration ([2]; monotherapy 3 mg/kg): 1.94 ± 0.14 mmol | Urinary Na+ concentration ([2]; monotherapy 3 mg/kg): 1.39 ± 0.12 mmol | Urinary Volume/ body weight ([2]; monotherapy 3 mg/kg): 0.08184 ± 0.01199 L/kg | Urinary Glucose concentration ([2]; monotherapy 10 mg/kg): 272.62 ± 22.51 mmol | Urinary K+ concentration ([2]; monotherapy 10 mg/kg): 1.75 ± 0.06 mmol | Urinary Na+ concentration ([2]; monotherapy 10 mg/kg): 1.30 ± 0.08 mmol | Urinary Volume/ body weight ([2]; monotherapy 10 mg/kg): 0.05682 ± 0.00259 L/kg | urinary sodium excretion higher in comparison to solvent control group A ([2]; monotherapy 3 mg/kg): 20.1% | influence on urinary glucose vs solvent, in words [2]: no influence | influence on urinary potassium vs solvent, in words [2]: no influence | influence on urinary sodium vs solvent, in words [2]: no influence | influence on urinary volume vs solvent, in words [2]: no influence | proteinuria reduction ([3]; 1 mg/kg once daily orally): −27% | proteinuria reduction ([3]; 3 mg/kg once daily orally): −87% | renal histology parameters / renal lesions, in words ([3]; once daily orally): comparable protection from renal lesions at higher dosages | systolic blood pressure, in words ([3]; once daily orally): significantly decreased

OC[C@H]1O[C@@H](c2ccc(Cl)c(Cc3ccc(O[C@H]4CCOC4)cc3)c2)[C@H](O)[C@@H](O)[C@@H]1O [empagliflozin, (2S,3R,4R,5S,6R)-2-[4-chloro-3-[[4-[(3S)-oxolan-3-yl]oxyphenyl]methyl]phenyl]-6-(hydroxymethyl)oxane-3,4,5-triol]
Urinary Glucose concentration [1, 5]: 0.34 ± 0.10 mmol | Urinary K+ concentration [1, 5]: 1.66 ± 0.11 mmol | Urinary Volume/ body weight [1, 5]: 0.0278 ± 0.00358 L/kg | Urinary Glucose concentration [1, 12]: 1.21 ± 0.21 mmol | Urinary K+ concentration [1, 12]: 1.74 ± 0.15 mmol | Urinary Na+ concentration [1, 12]: 0.13 ± 0.02 mmol | Urinary Volume/ body weight [1, 12]: 0.02296 ± 0.00275 L/kg | Urinary Glucose concentration [1, 13]: 4.26 ± 0.59 mmol | Urinary K+ concentration [1, 13]: 1.85 ± 0.11 mmol | Urinary Na+ concentration [1, 13]: 0.17 ± 0.03 mmol | Urinary Volume/ body weight [1, 13]: 0.02845 ± 0.00191 L/kg | influence on urinary glucose, in words [1, 6]: dose-dependent and strong increase | influence on urinary potassium, in words [1, 6]: no influence | influence on urinary sodium, in words [1, 6]: no influence | influence on urinary volume, in words [1, 6]: no influence | Urinary Glucose concentration ([2]; monotherapy 3 mg/kg): 321.55 ± 22.78 mmol | Urinary K+ concentration ([2]; monotherapy 3 mg/kg): 2.22 ± 0.13 mmol | Urinary Na+ concentration ([2]; monotherapy 3 mg/kg): 1.47 ± 0.10 mmol | Urinary Volume/ body weight ([2]; monotherapy 3 mg/kg): 0.09998 ± 0.00712 L/kg | Urinary Glucose concentration ([2]; monotherapy 10 mg/kg): 317.16 ± 25.10 mmol | Urinary K+ concentration ([2]; monotherapy 10 mg/kg): 2.64 ± 0.20 mmol | Urinary Na+ concentration ([2]; monotherapy 10 mg/kg): 2.05 ± 0.27 mmol | Urinary Volume/ body weight ([2]; monotherapy 10 mg/kg): 0.11038 ± 0.00455 L/kg | urinary sodium excretion higher in comparison to solvent control group A ([2]; monotherapy 3 mg/kg): 27.2% | influence on urinary glucose vs solvent, in words [2]: increases | influence on urinary potassium vs solvent, in words [2]: increases | influence on urinary sodium vs solvent, in words [2]: increases | influence on urinary volume vs solvent, in words [2]: increases | proteinuria reduction ([3]; 3 mg/kg once daily orally): −38% | proteinuria reduction ([3]; 10 mg/kg once daily orally): −64% | glucosuric action, in words ([3]; once daily orally): strongly glucosoric | renal histology parameters / renal lesions, in words ([3]; once daily orally): comparable protection from renal lesions at higher dosages

CCOc1ccc(Cc2cc([C@@H]3O[C@H](CO)[C@@H](O)[C@H](O)[C@H]3O)ccc2Cl)cc1 [dapagliflozin, (2S,3R,4R,5S,6R)-2-[4-chloro-3-[(4-ethoxyphenyl)methyl]phenyl]-6-(hydroxymethyl)oxane-3,4,5-triol]
Urinary Glucose concentration [1, 14]: 0.72 ± 0.18 mmol | Urinary K+ concentration [1, 14]: 2.21 ± 0.16 mmol | Urinary Na+ concentration [1, 14]: 0.19 ± 0.05 mmol | Urinary Volume/ body weight [1, 14]: 0.03917 ± 0.00408 L/kg | Urinary Glucose concentration [1, 15]: 5.26 ± 0.29 mmol | Urinary K+ concentration [1, 15]: 2.43 ± 0.07 mmol | Urinary Na+ concentration [1, 15]: 0.19 ± 0.04 mmol | Urinary Volume/ body weight [1, 15]: 0.03884 ± 0.00394 L/kg | Urinary Glucose concentration [1, 16]: 9.71 ± 0.36 mmol | Urinary K+ concentration [1, 16]: 2.34 ± 0.10 mmol | Urinary Na+ concentration [1, 16]: 0.29 ± 0.05 mmol | Urinary Volume/ body weight [1, 16]: 0.04872 ± 0.00153 L/kg | influence on urinary sodium, in words [1, 17]: increase | influence on urinary volume, in words [1, 17]: increase | influence on urinary potassium, in words [1, 10]: no influence | influence on urinary sodium, in words [1, 10]: no influence | influence on urinary volume, in words [1, 10]: no influence | influence on urinary glucose, in words [1, 11]: strong increase | natriuresis, in words [4]: returned to baseline after 13 days of intervention
